Reference: article PMC6639057 (Investigational new drugs, 2018)

Test system: patients with advanced solid tumors
Experiment: Adverse events
[1] = escalation 35 mg + G-CSF (n = 3)
[2] = escalation 40 mg + G-CSF (n = 11)
[3] = escalation 50 mg + G-CSF (n = 4)
[4] = escalation 1, 2, 4, 8 mg (n = 4)
[5] = expansion 40 mg + G-CSF, CRPC (n = 12)
[6] = expansion 40 mg + G-CSF, OC (n = 29)
[7] = expansion 40 mg + G-CSF, TNBC (n = 14)

SMILES: Cc1csc(-c2nnc(Nc3ccc(Oc4ncccc4-c4ccnc(N)n4)cc3)c3ccccc23)c1 [AMG 900]
- All treatment-related AEs [1]: 3 (100) n (%)
- Fatal AEs [1]: 0 n (%)
- Grade ≥ 3 AEs [1]: 2 (67) n (%)
- Grade ≥ 3 treatment-related AEs [1]: 2 (67) n (%)
- Grade ≥ 3 treatment-related AEs: Anemia [1]: 0 n (%)
- Grade ≥ 3 treatment-related AEs: Diarrhea [1]: 0 n (%)
- Grade ≥ 3 treatment-related AEs: Fatigue [1]: 0 n (%)
- Grade ≥ 3 treatment-related AEs: Febrile neutropenia [1]: 0 n (%)
- Grade ≥ 3 treatment-related AEs: Hemoglobin decreased [1]: 0 n (%)
- Grade ≥ 3 treatment-related AEs: Leukopenia [1]: 1 (33) n (%)
- Grade ≥ 3 treatment-related AEs: Lymphopenia [1]: 0 n (%)
- Grade ≥ 3 treatment-related AEs: Nausea [1]: 0 n (%)
- Grade ≥ 3 treatment-related AEs: Neutropenia [1]: 1 (33) n (%)
- Grade ≥ 3 treatment-related AEs: Thrombocytopenia [1]: 0 n (%)
- Grade ≥ 3 treatment-related AEs: Vomiting [1]: 1 (33) n (%)
- Grade ≥ 3 treatment-related AEs: White blood cell count decreased [1]: 0 n (%)
- Grade ≥ 4 AEs [1]: 1 (33) n (%)
- Serious AEs [1]: 1 (33) n (%)
- AEs leading to discontinuation of AMG 900 [2]: 2 (18) n (%)
- All treatment-emergent AEs [2]: 11 (100) n (%)
- All treatment-related AEs [2]: 10 (91) n (%)
- Fatal AEs [2]: 0 n (%)
- Grade ≥ 3 AEs [2]: 8 (73) n (%)
- Grade ≥ 3 treatment-related AEs [2]: 6 (55) n (%)
- Grade ≥ 3 treatment-related AEs: Anemia [2]: 0 n (%)
- Grade ≥ 3 treatment-related AEs: Diarrhea [2]: 2 (18) n (%)
- Grade ≥ 3 treatment-related AEs: Fatigue [2]: 0 n (%)
- Grade ≥ 3 treatment-related AEs: Febrile neutropenia [2]: 2 (18) n (%)
- Grade ≥ 3 treatment-related AEs: Hemoglobin decreased [2]: 0 n (%)
- Grade ≥ 3 treatment-related AEs: Leukopenia [2]: 1 (9) n (%)
- Grade ≥ 3 treatment-related AEs: Lymphopenia [2]: 1 (9) n (%)
- Grade ≥ 3 treatment-related AEs: Nausea [2]: 0 n (%)
- Grade ≥ 3 treatment-related AEs: Neutropenia [2]: 5 (46) n (%)
- Grade ≥ 3 treatment-related AEs: Thrombocytopenia [2]: 1 (9) n (%)
- Grade ≥ 3 treatment-related AEs: Vomiting [2]: 0 n (%)
- Grade ≥ 3 treatment-related AEs: White blood cell count decreased [2]: 0 n (%)
- Grade ≥ 4 AEs [2]: 4 (36) n (%)
- Serious AEs [2]: 3 (27) n (%)
- AEs leading to discontinuation of AMG 900 [3]: 2 (50) n (%)
- All treatment-emergent AEs [3]: 4 (100) n (%)
- All treatment-related AEs [3]: 4 (100) n (%)
- Fatal AEs [3]: 1 (25) n (%)
- Grade ≥ 3 AEs [3]: 3 (75) n (%)
- Grade ≥ 3 treatment-related AEs [3]: 3 (75) n (%)
- Grade ≥ 3 treatment-related AEs: Anemia [3]: 1 (25) n (%)
- Grade ≥ 3 treatment-related AEs: Diarrhea [3]: 0 n (%)
- Grade ≥ 3 treatment-related AEs: Fatigue [3]: 2 (50) n (%)
- Grade ≥ 3 treatment-related AEs: Febrile neutropenia [3]: 1 (25) n (%)
- Grade ≥ 3 treatment-related AEs: Hemoglobin decreased [3]: 0 n (%)
- Grade ≥ 3 treatment-related AEs: Leukopenia [3]: 1 (25) n (%)
- Grade ≥ 3 treatment-related AEs: Lymphopenia [3]: 0 n (%)
- Grade ≥ 3 treatment-related AEs: Nausea [3]: 0 n (%)
- Grade ≥ 3 treatment-related AEs: Neutropenia [3]: 1 (25) n (%)
- Grade ≥ 3 treatment-related AEs: Thrombocytopenia [3]: 1 (25) n (%)
- Grade ≥ 3 treatment-related AEs: Vomiting [3]: 0 n (%)
- Grade ≥ 3 treatment-related AEs: White blood cell count decreased [3]: 0 n (%)
- Grade ≥ 4 AEs [3]: 2 (50) n (%)
- Serious AEs [3]: 2 (50) n (%)
- AEs leading to discontinuation of AMG 900 [4]: 0 n (%)
- All treatment-emergent AEs [4]: 4 (100) n (%)
- All treatment-related AEs [4]: 3 (75) n (%)
- Fatal AEs [4]: 0 n (%)
- Grade ≥ 3 AEs [4]: 1 (25) n (%)
- Grade ≥ 3 treatment-related AEs [4]: 1 (25) n (%)
- Grade ≥ 3 treatment-related AEs: Anemia [4]: 1 (25) n (%)
- Grade ≥ 3 treatment-related AEs: Diarrhea [4]: 0 n (%)
- Grade ≥ 3 treatment-related AEs: Fatigue [4]: 0 n (%)
- Grade ≥ 3 treatment-related AEs: Febrile neutropenia [4]: 0 n (%)
- Grade ≥ 3 treatment-related AEs: Hemoglobin decreased [4]: 0 n (%)
- Grade ≥ 3 treatment-related AEs: Leukopenia [4]: 0 n (%)
- Grade ≥ 3 treatment-related AEs: Lymphopenia [4]: 0 n (%)
- Grade ≥ 3 treatment-related AEs: Nausea [4]: 0 n (%)
- Grade ≥ 3 treatment-related AEs: Neutropenia [4]: 0 n (%)
- Grade ≥ 3 treatment-related AEs: Thrombocytopenia [4]: 0 n (%)
- Grade ≥ 3 treatment-related AEs: Vomiting [4]: 0 n (%)
- Grade ≥ 3 treatment-related AEs: White blood cell count decreased [4]: 0 n (%)
- Grade ≥ 4 AEs [4]: 0 n (%)
- Serious AEs [4]: 0 n (%)
- AEs leading to discontinuation of AMG 900 [5]: 3 (25) n (%)
- All treatment-emergent AEs [5]: 12 (100) n (%)
- All treatment-related AEs [5]: 12 (100) n (%)
- Fatal AEs [5]: 0 n (%)
- Grade ≥ 3 AEs [5]: 9 (75) n (%)
- Grade ≥ 3 treatment-related AEs [5]: 6 (50) n (%)
- Grade ≥ 3 treatment-related AEs: Anemia [5]: 2 (17) n (%)
- Grade ≥ 3 treatment-related AEs: Diarrhea [5]: 0 n (%)
- Grade ≥ 3 treatment-related AEs: Fatigue [5]: 2 (17) n (%)
- Grade ≥ 3 treatment-related AEs: Febrile neutropenia [5]: 0 n (%)
- Grade ≥ 3 treatment-related AEs: Hemoglobin decreased [5]: 1 (8) n (%)
- Grade ≥ 3 treatment-related AEs: Leukopenia [5]: 0 n (%)
- Grade ≥ 3 treatment-related AEs: Lymphopenia [5]: 1 (8) n (%)
- Grade ≥ 3 treatment-related AEs: Nausea [5]: 2 (17) n (%)
- Grade ≥ 3 treatment-related AEs: Neutropenia [5]: 3 (25) n (%)
- Grade ≥ 3 treatment-related AEs: Thrombocytopenia [5]: 1 (8) n (%)
- Grade ≥ 3 treatment-related AEs: Vomiting [5]: 0 n (%)
- Grade ≥ 3 treatment-related AEs: White blood cell count decreased [5]: 0 n (%)
- Grade ≥ 4 AEs [5]: 2 (17) n (%)
- Serious AEs [5]: 4 (33) n (%)
- AEs leading to discontinuation of AMG 900 [6]: 5 (17) n (%)
- All treatment-emergent AEs [6]: 29 (100) n (%)
- All treatment-related AEs [6]: 28 (97) n (%)
- Fatal AEs [6]: 0 n (%)
- Grade ≥ 3 AEs [6]: 25 (86) n (%)
- Grade ≥ 3 treatment-related AEs [6]: 22 (76) n (%)
- Grade ≥ 3 treatment-related AEs: Anemia [6]: 12 (41) n (%)
- Grade ≥ 3 treatment-related AEs: Diarrhea [6]: 1 (3) n (%)
- Grade ≥ 3 treatment-related AEs: Fatigue [6]: 1 (3) n (%)
- Grade ≥ 3 treatment-related AEs: Febrile neutropenia [6]: 6 (21) n (%)
- Grade ≥ 3 treatment-related AEs: Hemoglobin decreased [6]: 2 (7) n (%)
- Grade ≥ 3 treatment-related AEs: Leukopenia [6]: 3 (10) n (%)
- Grade ≥ 3 treatment-related AEs: Lymphopenia [6]: 1 (3) n (%)
- Grade ≥ 3 treatment-related AEs: Nausea [6]: 0 n (%)
- Grade ≥ 3 treatment-related AEs: Neutropenia [6]: 17 (59) n (%)
- Grade ≥ 3 treatment-related AEs: Thrombocytopenia [6]: 6 (21) n (%)
- Grade ≥ 3 treatment-related AEs: Vomiting [6]: 1 (3) n (%)
- Grade ≥ 3 treatment-related AEs: White blood cell count decreased [6]: 2 (7) n (%)
- Grade ≥ 4 AEs [6]: 12 (41) n (%)
- Serious AEs [6]: 14 (48) n (%)
- AEs leading to discontinuation of AMG 900 [7]: 5 (36) n (%)
- All treatment-emergent AEs [7]: 14 (100) n (%)
- All treatment-related AEs [7]: 13 (93) n (%)
- Fatal AEs [7]: 3 (21) n (%)
- Grade ≥ 3 AEs [7]: 11 (79) n (%)
- Grade ≥ 3 treatment-related AEs [7]: 6 (43) n (%)
- Grade ≥ 3 treatment-related AEs: Anemia [7]: 4 (29) n (%)
- Grade ≥ 3 treatment-related AEs: Diarrhea [7]: 1 (7) n (%)
- Grade ≥ 3 treatment-related AEs: Fatigue [7]: 0 n (%)
- Grade ≥ 3 treatment-related AEs: Febrile neutropenia [7]: 1 (7) n (%)
- Grade ≥ 3 treatment-related AEs: Hemoglobin decreased [7]: 0 n (%)
- Grade ≥ 3 treatment-related AEs: Leukopenia [7]: 0 n (%)
- Grade ≥ 3 treatment-related AEs: Lymphopenia [7]: 0 n (%)
- Grade ≥ 3 treatment-related AEs: Nausea [7]: 1 (7) n (%)
- Grade ≥ 3 treatment-related AEs: Neutropenia [7]: 4 (29) n (%)
- Grade ≥ 3 treatment-related AEs: Thrombocytopenia [7]: 1 (7) n (%)
- Grade ≥ 3 treatment-related AEs: Vomiting [7]: 0 n (%)
- Grade ≥ 3 treatment-related AEs: White blood cell count decreased [7]: 0 n (%)
- Grade ≥ 4 AEs [7]: 5 (36) n (%)
- Serious AEs [7]: 7 (50) n (%)
